Source: BindingDB's records for patent US12208088 (Genentech, 2025)

target: Mitogen-activated protein kinase kinase kinase kinase 1 (Homo sapiens, UniProt Q92918); assay: HPK1 Lantha Binding Assay
Protocol: For the binding assay, 4 ul 2×HPK1 and Eu-anti-GST antibody were added to each well of the assay plate using a Multidrop reagent dispenser. The solutions were incubated in a 23 C incubator for 1 h. To each well of the assay plate was added 4 ul 2× Tracer-222 using a Multidrop reagent dispenser. The solutions were again incubated in a 23 C incubator for 1 h. The results of the assay were read using an Envision plate reader with the following parameters: TR_FRET, 340 ex/615 and 665em; 100 usec Delay; and 200 usec integration.

Sequence of Mitogen-activated protein kinase kinase kinase kinase 1 (Q92918 whole entry): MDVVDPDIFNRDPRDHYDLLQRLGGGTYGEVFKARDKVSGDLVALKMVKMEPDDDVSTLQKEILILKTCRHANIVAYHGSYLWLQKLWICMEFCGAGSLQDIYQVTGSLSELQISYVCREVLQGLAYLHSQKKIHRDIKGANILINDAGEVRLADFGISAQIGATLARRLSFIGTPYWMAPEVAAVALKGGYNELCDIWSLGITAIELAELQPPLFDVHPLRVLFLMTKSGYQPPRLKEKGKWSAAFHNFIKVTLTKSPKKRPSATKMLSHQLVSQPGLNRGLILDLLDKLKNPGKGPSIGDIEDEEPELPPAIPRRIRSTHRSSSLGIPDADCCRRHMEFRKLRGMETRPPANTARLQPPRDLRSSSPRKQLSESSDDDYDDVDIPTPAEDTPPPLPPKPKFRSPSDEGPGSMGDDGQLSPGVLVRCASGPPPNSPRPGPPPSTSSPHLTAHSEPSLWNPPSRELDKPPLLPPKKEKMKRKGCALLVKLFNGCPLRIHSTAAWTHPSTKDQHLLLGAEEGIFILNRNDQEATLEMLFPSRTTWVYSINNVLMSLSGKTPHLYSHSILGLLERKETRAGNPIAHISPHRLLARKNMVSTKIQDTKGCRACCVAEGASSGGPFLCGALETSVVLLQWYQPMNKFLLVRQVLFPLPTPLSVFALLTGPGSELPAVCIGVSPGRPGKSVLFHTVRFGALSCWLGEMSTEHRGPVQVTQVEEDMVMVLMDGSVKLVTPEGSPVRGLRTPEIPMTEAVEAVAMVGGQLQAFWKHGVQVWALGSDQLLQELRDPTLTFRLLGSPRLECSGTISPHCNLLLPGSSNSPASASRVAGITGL

`CC1CNC(=O)N1c1c(N)ccc(-c2cnc3c(c2Cl)C2(CC2)CN3)c1F` (configuration not stated) [US12208088, Compound 25] was tested. Which Ki did it give?
Its Ki is 43.9 nM.

`CC(=O)Nc1cc(C(=O)N(C)C)cc(-c2cnc3c(c2Cl)C2(CC2)CN3)c1` [US12208088, Compound 33] was tested. Which Ki did it give?
The Ki was 771 nM.

`CN(CC(C)(C)O)C(=O)c1c(N)ccc(-c2cnc3c(c2Cl)C2(CC2)CN3)c1F` [US12208088, Compound 35] was tested. Which Ki did it give?
The Ki was 22.8 nM.

For `O=C1NCCC1c1cccc(-c2cnc3c(c2)C2(CC2)CN3)c1F` (configuration not stated) [US12208088, Compound 92], which Ki is on record?
The Ki was 28.4 nM.

For `CN(C)C(=O)c1c(N)ccc(-c2cnc3c(c2Cl)C2(CCC(Cn4cncn4)C2)CN3)c1F` (configuration not stated) [US12208088, Compound 129], which Ki is on record?
Its Ki is 23.4 nM.

With `CN(C)C(=O)c1ccc(-c2cnc3c(c2Cl)C2(CC=CC2)CN3)cc1Cl` [US12208088, Compound 192] as the molecule, how does the Ki read?
The Ki was 163 nM.

`N#CC1CCCCN1C(=O)c1cccc(-c2cnc3c(c2Cl)C2(CC=CC2)CN3)c1F` (configuration not stated) [US12208088, Compound 264] was tested. Which Ki did it give?
Its Ki is 11.5 nM.
